The supplement of paper PMC5908809

How the values were obtained:
[1] = system: normal NK cells expanded with K562-aAPC; assay: drug sensitivity score (DSS) (DSS units); higher = more sensitive; extreme values may be limits of the assay; conditions: 72 h; IL-2 2.5 ng/mL
Method: (§1)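 Drug sensitivity and resistance testing on K562-aAPC-expanded normal NK cells: 5 concentrations (10-fold steps over a 10,000-fold range), 72 h at 37 °C, viability by CellTiter-Glo normalised to DMSO and benzethonium chloride controls; DSS from the fitted curve.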

NK-92 (IL-2 2.5 ng/mL) [2] = assay: as above; conditions: 72 h
[3] = system: normal primary NK cells, pool 1 (3 donors), resting (IL-2 0 ng/mL); assay: as above; conditions: 72 h
[4] = system: normal primary NK cells, pool 2 (3 donors) (IL-2 2.5 ng/mL); assay: as above; conditions: 72 h
[5] = system: normal primary NK cells, pool 3 (3 donors) (IL-2 2.5 ng/mL); assay: as above; conditions: 72 h
NK-YS (IL-2 2.5 ng/mL) [6] = assay: as above; conditions: 72 h
SNK-6 (IL-2 2.5 ng/mL) [7] = assay: as above; conditions: 72 h
IMC-1 (IL-2 20 ng/mL) [8] = assay: as above; conditions: 72 h
KHYG-1 (IL-2 2.5 ng/mL) [9] = assay: as above; conditions: 72 h
[10] = system: normal primary NK cells, pool 1 (3 donors) (IL-2 2.5 ng/mL); assay: as above; conditions: 72 h
NKL (IL-2 2.5 ng/mL) [11] = assay: as above; conditions: 72 h
DERL-7 (IL-2 2.5 ng/mL) [12] = assay: as above; conditions: 72 h
YT (IL-2 2.5 ng/mL) [13] = assay: as above; conditions: 72 h
KAI3 (IL-2 2.5 ng/mL) [14] = assay: as above; conditions: 72 h
NK-92 (IL-2 2.5 ng/mL) [15] = assay: percent inhibition of viability; higher = more inhibition; conditions: 72 h
[16] = system: normal primary NK cells, pool 1 (3 donors), resting (IL-2 0 ng/mL); assay: as above; conditions: 72 h
[17] = system: normal primary NK cells, pool 2 (3 donors) (IL-2 2.5 ng/mL); assay: as above; conditions: 72 h
[18] = system: normal primary NK cells, pool 3 (3 donors) (IL-2 2.5 ng/mL); assay: as above; conditions: 72 h
NK-YS (IL-2 2.5 ng/mL) [19] = assay: as above; conditions: 72 h
SNK-6 (IL-2 2.5 ng/mL) [20] = assay: as above; conditions: 72 h
IMC-1 (IL-2 20 ng/mL) [21] = assay: as above; conditions: 72 h
KHYG-1 (IL-2 2.5 ng/mL) [22] = assay: as above; conditions: 72 h
[23] = system: normal primary NK cells, pool 1 (3 donors) (IL-2 2.5 ng/mL); assay: as above; conditions: 72 h
NKL (IL-2 2.5 ng/mL) [24] = assay: as above; conditions: 72 h
DERL-7 (IL-2 2.5 ng/mL) [25] = assay: as above; conditions: 72 h
YT (IL-2 2.5 ng/mL) [26] = assay: as above; conditions: 72 h
KAI3 (IL-2 2.5 ng/mL) [27] = assay: as above; conditions: 72 h
[28] = system: normal NK cells expanded with K562-aAPC; assay: as above; conditions: 72 h, IL-2 2.5 ng/mL
Method: as §1

CCS(=O)(=O)N1CC(CC#N)(n2cc(-c3ncnc4[nH]ccc34)cn2)C1 [Baricitinib] (max concentration tested 2500 nM)
Conditions	drug sensitivity score
DERL-7 (IL-2 2.5 ng/mL) [12]	19
IMC-1 (IL-2 20 ng/mL) [8]	7.47
KAI3 (IL-2 2.5 ng/mL) [14]	24.6
KHYG-1 (IL-2 2.5 ng/mL) [9]	23.9
NK-92 (IL-2 2.5 ng/mL) [2]	15.6
NK-YS (IL-2 2.5 ng/mL) [6]	13.7
NKL (IL-2 2.5 ng/mL) [11]	26.3
SNK-6 (IL-2 2.5 ng/mL) [7]	12.8
YT (IL-2 2.5 ng/mL) [13]	11.6
[1]	20.2
[3]	0
[4]	13.3
[5]	10.4
[10]	14.7

percent inhibition of viability [%]
Conditions	0.25 nM	2.5 nM	25 nM	250 nM	2500 nM
DERL-7 (IL-2 2.5 ng/mL) [25]	2.21	8.22	35.1	77.5	101
IMC-1 (IL-2 20 ng/mL) [21]	-4.87	-4.53	-11.2	16.2	87.2
KAI3 (IL-2 2.5 ng/mL) [27]	4.12	13.4	55.5	95.9	99.2
KHYG-1 (IL-2 2.5 ng/mL) [22]	-8.72	1.48	46.9	106	109
NK-92 (IL-2 2.5 ng/mL) [15]	-7.1	-0.82	23.4	68	97.8
NK-YS (IL-2 2.5 ng/mL) [19]	-8.38	-2.38	20.7	60.4	74.6
NKL (IL-2 2.5 ng/mL) [24]	6.63	24.6	64.2	84.6	103
SNK-6 (IL-2 2.5 ng/mL) [20]	-16.6	-24.9	5.7	64.8	68.9
YT (IL-2 2.5 ng/mL) [26]	-5.41	-0.41	7.96	54.3	86.4
[16]	0.1	4.62	4.85	2.89	12.1
[17]	-1.68	0.38	17.6	60.4	68.1
[18]	2.14	-2.13	9.5	48.8	70.4
[23]	-7.54	2.7	26.4	61.7	74.2
[28]	0.8	2.05	31	89.9	99.7

COC(=O)C[C@](O)(CCCC(C)(C)O)C(=O)O[C@@H]1C(OC)=C[C@]23CCCN2CCc2cc4c(cc2[C@H]13)OCO4 [Omacetaxine] (max concentration tested 10000 nM)
Conditions	drug sensitivity score
DERL-7 (IL-2 2.5 ng/mL) [12]	37.8
IMC-1 (IL-2 20 ng/mL) [8]	30.1
KAI3 (IL-2 2.5 ng/mL) [14]	37.1
KHYG-1 (IL-2 2.5 ng/mL) [9]	29.9
NK-92 (IL-2 2.5 ng/mL) [2]	31.6
NK-YS (IL-2 2.5 ng/mL) [6]	30.6
NKL (IL-2 2.5 ng/mL) [11]	30.8
SNK-6 (IL-2 2.5 ng/mL) [7]	38.8
YT (IL-2 2.5 ng/mL) [13]	33.7
[1]	31.6
[3]	43.6
[4]	38.4
[5]	35.4
[10]	38.4

percent inhibition of viability [%]
Conditions	1 nM	10 nM	100 nM	1000 nM	10000 nM
DERL-7 (IL-2 2.5 ng/mL) [25]	5.07	60.5	100	101	101
IMC-1 (IL-2 20 ng/mL) [21]	-8.96	-3.07	99.7	101	101
KAI3 (IL-2 2.5 ng/mL) [27]	29.6	46.7	101	105	106
KHYG-1 (IL-2 2.5 ng/mL) [22]	-7.86	-9.89	102	106	107
NK-92 (IL-2 2.5 ng/mL) [15]	1.68	7.27	100	106	108
NK-YS (IL-2 2.5 ng/mL) [19]	1.36	1.43	100	105	108
NKL (IL-2 2.5 ng/mL) [24]	3.97	2.74	99.8	107	108
SNK-6 (IL-2 2.5 ng/mL) [20]	0.3	72.3	95.2	95.4	99.9
YT (IL-2 2.5 ng/mL) [26]	-7.92	19.8	98.2	107	108
[16]	39.6	89.8	90.3	89.8	91.4
[17]	4.96	73.8	93.2	93.8	95.3
[18]	9.72	46.5	96.3	97.1	99.5
[23]	1.78	69	96.7	96.5	99
[28]	3.7	16	93.1	101	101
